Experimental data published in patent publication US20220308045A1, “EXPANDABLE LIVER ORGANOIDS, MEDIA COMPOSITION FOR DIFFERENTIATION THEREOF, AND METHOD FOR PRODUCING LIVER ORGANOIDS USING THE SAME” (KOREA RESEARCH INSTITUTE OF BIOSCIENCE AND BIOTECHNOLOGY, priority 2019, published 2022).

Legend:
[1] = system: organoids in the HM conditions; experiment: APAP toxic damage, regeneration and inflammatory response of liver organoids; type: cell-based, human
Protocol: Time-lapsed images were taken at 37° C. under 5% CO2 at 30-minute intervals with an Olympus IX83 inverted microscope. The diameter of the organoid was measured using ImageJ program at the designated time point from the time lapsed image. Fluorescence images were taken with a confocal microscope. In addition, the organoids were cultured for 30 minutes with 7.5 μM dihydroethidium (Sigma; D7008) for detecting ROS, 30 μM monochlorobimane (Sigma; 69899) for measuring GSH content, and 2.5 μM Syto11 (Thermo Fisher; S7573) for staining nuclei.
In addition, the expressions of high-mobility group protein 1 (HMGB1), which is a protein involved in the detection of ROS and the inflammatory response of cells, ki67, which is a marker indicating cell proliferation, E-cadherin, which is an epithelial marker, LC3B, which is an autophagy marker, and Tom20, a mitochondrial marker, were analyzed at protein level according to the method described in Experimental Example 1.

[2] = system: steatosis-induced liver organoids; experiment: Drug screening of autophagy library for suppressing lipid accumulation (Nile red); type: cell-based, human; conditions: 10 μM during steatosis induction; top four of 151 chemical substances
Protocol: For drug screening, the organoids were treated with 151 chemical substances at a concentration of 10 μM in the autophagy library (Selleckchem; At L2600) during the hepatic steatosis induction period. Then, the organoids were stained with Nile red and fluorescence images were analyzed with a confocal microscope.

[3] = system: steatosis-induced liver organoids; experiment: Hepatic steatosis model: mitochondrial respiration measured by OCR; type: cell-based, human; conditions: added to FA
Protocol: (§1) Oxygen consumption rate (OCR) was measured for real-time monitoring of mitochondrial toxicity. Two days before the measurement, the organoids were seeded on XFe 96-well plate (Agilent; 102416-100). The probe cartridge was adjusted overnight in a non-C02 incubator at 37° C. On the assay day, the culture medium was removed and washed with warm assay medium (Agilent Seahorse XF base medium (102353-100) supplemented with 1 mM glutamine, 1 mM pyruvate and 17.5 mM glucose for OCR measurement), and the assay medium was added. The culture dish was placed in a non-CO2 incubator at 37° C. for 1 hour, and OCR was measured using Seahorse XFe96 Flux Analyzer according to the manufacturer's instructions.
(§2) For OCR measurement, ATP synthesis inhibitors (1.5 μM oligomycin and ETC complex V inhibitor), uncoupler (1 μM FCCP), and complex I inhibitor (0.5 μM Rotenone) plus complex III inhibitor (0.5 μM antimycin A) were sequentially added at designated time points. The measured value was normalized to the number of surviving cells measured by Cell Counting Kit-8 (Dogindo; CK04-01).
(§3) Meanwhile, in order to confirm the effect on the induction of hepatic steatosis, the organoids in the HM conditions were treated with BSA, FA, FA+etomoxir, FA+L-carnitine, and FA+metformin, respectively, and the results were compared.

[4] = system: steatosis-induced liver organoids; experiment: Hepatic steatosis model: lipid droplets by bright field microscope and Nile red staining; type: cell-based, human; conditions: added to FA (oleate and palmitate), compared with FA alone
Protocol: The organoids in the HM conditions were seeded on a 24-well plate in order to be induced into liver organoids with steatosis. Three days after seeding, 0.5 mM oleate (Sigma; 07501) combined with 12% fatty acid-free BSA (Sigma; A8806) and 0.25 mM palmitate (Sigma; P9767) were added for 3 days, and images of accumulated lipid droplets were observed under a microscope. For Nile red staining, the samples were washed with PBS and fixed with 4% PFA at 4° C. overnight. The organoids were washed with PBS and treated with 10 μg/ml Nile red solution (Thermo Fisher; N1142) at room temperature for 5 minutes. Fluorescence images were taken with a confocal microscope.
as §3

[5] = system: steatosis-induced liver organoids; experiment: Hepatic steatosis model: triglyceride concentration; type: cell-based, human; conditions: added to FA, compared with BSA control or FA alone
Protocol: For the analysis of triglyceride concentration, the steatosis-induced organoids were analyzed by using triglyceride assay kit (Abcam; ab65336) according to the manufacturer's instructions. The organoids were homogenized for 5 minutes using 1 mL of a 5% NP-40 solution under the condition of heated to 80 to 100° C. The pellets were diluted 10-fold with dilution water before starting the analysis. Absorbance was measured at 570 nm by using SpectraMax microplate reader.
as §3

in vitro = conditions: human
Protocol: (§4) The 2D differentiated mature hepatocytes (2D MH) and organoids (HM) in the HM conditions were seeded in a 24-well plate. […] Three days after seeding, the drug was added daily for 6 days, and toxicity was evaluated by calculating the number of cells using Countess II FL (Life Technology). Then, the organoids were washed with PBS, and fluorescence images were taken with a confocal microscope. Relative intensity was measured using ZEN program (Zeiss) in the same region.
(§5) Next, the effects of trovafloxacin (Sigma; PZ0015) and levofloxacin (Sigma; 28,266), which are structurally related antibiotics, on the 2D MH and the organoids in the HM conditions were compared.

[6] = read-out: Cmax concentration; cited from earlier work
CYP3A4 = CYP3A4 (Homo sapiens, UniProt P08684)
Protocol: Aliquots (100 μL) were diluted with 2-fold volume of acetonitrile containing carbamazepine as an internal standard for sample analysis and transferred to a 96-well plate.

[7] = system: organoids in the HM conditions; experiment: in vitro; conditions: human, 6 days
Protocol: as §4, §5

[8] = system: organoids in the HM conditions; experiment: Oxygen consumption rate (OCR) for mitochondrial toxicity in liver organoids; type: cell-based, human; conditions: 0.8 μM and 4 μM, 6 days
Protocol: as §1, §2

2D MH = experiment: Drug toxicity by number of cells after 6 days of treatment, 2D differentiated mature hepatocytes; type: cell-based, human; conditions: 0.8 μM and 4 μM
Protocol: as §4, §5

[9] = patients; cited from earlier work

Chain of CYP3A4 (P08684 whole entry): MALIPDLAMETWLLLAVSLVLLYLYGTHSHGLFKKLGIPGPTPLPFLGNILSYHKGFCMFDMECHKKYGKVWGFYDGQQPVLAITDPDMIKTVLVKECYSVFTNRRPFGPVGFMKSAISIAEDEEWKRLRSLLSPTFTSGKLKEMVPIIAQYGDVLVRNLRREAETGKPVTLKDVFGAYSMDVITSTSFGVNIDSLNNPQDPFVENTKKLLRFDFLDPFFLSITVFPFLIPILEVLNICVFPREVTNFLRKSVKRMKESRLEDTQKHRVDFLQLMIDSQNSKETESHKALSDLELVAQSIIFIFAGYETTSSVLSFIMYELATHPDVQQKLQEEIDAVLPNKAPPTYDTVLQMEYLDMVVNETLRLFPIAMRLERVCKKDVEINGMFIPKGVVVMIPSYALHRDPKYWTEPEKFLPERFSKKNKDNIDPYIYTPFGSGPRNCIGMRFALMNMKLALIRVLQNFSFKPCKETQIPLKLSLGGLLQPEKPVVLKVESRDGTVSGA

CC(=O)Nc1ccc(O)cc1 [APAP, acetaminophen]
reactive oxygen species (ROS) ([1]; 20 mM APAP, dihydroethidium staining): increased
expression amounts of Ki67, E-cadherin, and Tom20 ([1]; 20 mM APAP, immunofluorescence): reduced
expression of HMGB1 ([1]; 20 mM APAP, immunofluorescence, migration to the cytoplasm): reduced
organoid morphology ([1]; 20 mM daily for 7 days): severe morphological damage
organoid morphology and size after recovery ([1]; 20 mM for 60 hours from day 2, new HM medium on day 4.5): recovered on day 7
expression of LC3B ([1]; APAP for 60 hours versus APAP for 5 days): more strongly induced
expression of IL-10 ([1]; APAP for 60 hours, then new HM medium on day 4.5, qRT-PCR): significantly increased
expressions of proinflammatory mediators (IL-1β, IL-6, IL-8) and pathological mediators (TNF-α and FasL) ([1]; APAP for 7 days, qRT-PCR): strongly induced

CO[C@H]1C[C@@H]2CC[C@@H](C)[C@@](O)(O2)C(=O)C(=O)N2CCCC[C@H]2C(=O)O[C@H]([C@H](C)C[C@@H]2CC[C@@H](OCCO)[C@H](OC)C2)CC(=O)[C@H](C)/C=C(\C)[C@@H](O)[C@@H](OC)C(=O)[C@H](C)C[C@H](C)/C=C/C=C/C=C/1C [Everolimus]
phenotype of hepatic steatosis and lipid accumulation in drug screening [2]: capable of restoring lipid accumulation

COc1ccc(-c2ccc3c(N4CCOCC4)nc(N4C[C@@H](C)O[C@@H](C)C4)nc3n2)cc1CO [KU-0063794]
phenotype of hepatic steatosis and lipid accumulation in drug screening [2]: capable of restoring lipid accumulation

C[N+](C)(C)C[C@H](O)CC(=O)[O-] [L-carnitine]
mitochondrial respiration measured by OCR [3]: recovered
accumulation of intracellular lipid droplets / lipid accumulation [4]: significantly reduced

O=C(CCCCCN1C(=O)c2cccc3cccc(c23)C1=O)NO [Scriptaid]
phenotype of hepatic steatosis and lipid accumulation in drug screening [2]: capable of restoring lipid accumulation

CC(=O)Nc1ccc(C(=O)Nc2ccccc2N)cc1 [Tacedinalin, Tacedinaline]
phenotype of hepatic steatosis and lipid accumulation in drug screening [2]: capable of restoring lipid accumulation

CCOC(=O)[C@@]1(CCCCCCOc2ccc(Cl)cc2)CO1 [etomoxir]
mitochondrial respiration measured by OCR [3]: significantly reduced
intracellular triglyceride concentration [5]: significantly increased
accumulation of intracellular lipid droplets / lipid accumulation [4]: significant accumulation

C[C@H]1COc2c(N3CCN(C)CC3)c(F)cc3c(=O)c(C(=O)O)cn1c23 [levofloxacin]
cytotoxicity at 6 days, 100 μM (in vitro): 36%
Cmax [6]: 23.8 µM

CN(C)C(=N)N=C(N)N [metformin]
intracellular triglyceride concentration [5]: not reduced
accumulation of intracellular lipid droplets / lipid accumulation [4]: slightly reduced

C[C@]12CC[C@H]3[C@@H](CCC4=CC(=O)CC[C@@]43C)[C@@H]1CC[C@@H]2O [testosterone]
metabolism to 6β-hydroxytestosterone (CYP3A4): directly hydroxylated

Cc1c(C)c2c(c(C)c1O)CCC(C)(COc1ccc(CC3SC(=O)NC3=O)cc1)O2 (stereo not drawn) [troglitazone, Troglitazone]
toxic response, 2D MH versus organoids [7]: different in 2D and 3D models

N[C@@H]1[C@H]2CN(c3nc4c(cc3F)c(=O)c(C(=O)O)cn4-c3ccc(F)cc3F)C[C@@H]12 [trovafloxacin]
OCR (mitochondrial respiration) [8]: reduction of OCR
number of cells (2D MH): little change
reported side effect [9]: patient death due to liver failure
Cmax [6]: 4.1 µM
